Source: US8084621B2, “3-Pyrrolo[b]cyclohexylene-2-dihydroindolinone derivatives and uses thereof” (Jiangsu Simcere Pharmaceutical R&D Co. Ltd., priority 2006, dated 2011)

Target: T1, PDGFR-β (Homo sapiens, UniProt P09619)
T1 construct: purchased Cell Signaling Technology CO
Experiment: Protein kinase activity by ELISA in vitro, PDGFR-β
Type: biochemical
Conditions: concentration of 10^−7 mol/L; read-out: kinase inhibition ratio, PDGFR-β
Text: An ELISA (Enzyme-Linked Immunosorbent Sandwich Assay) procedure may be used to detect and measure the level of protein tyrosine kinase activity. Tyrosine kinases such as VEGFR-2, PDGFR-β and c-Kit etc. catalyze the phosphorylation reaction of ATP and biotin-labeled peptide substrate, which will be ceased when the kinase activity is inhibited. According to the principle of ELISA, a monoclonal antibody can react with phosphorylated substrate specially, so biotin-labeled substrate is binded to streptavidin-coated ELISA plate, and then binded to a HRP-labeled goat anti-mouse antibody. Finally TMB is added for a color reaction and the value of A450-A630 is read by ELISA plate reader. The OD value can reflect the inhibitory activity of the VEGFR-2, PDGFR-β, c-Kit tyrosine kinases etc. treated with the test compounds at the different concentrations. So, the assay may be used to measure the inhibition ratio of the compounds for the tyrosine kinase activity. Similar assays can be designed along the same lines for any PK using techniques well known in the art. Tyrosine kinases such as VEGFR-2, PDGFR-β and c-Kit etc. catalyze the phosphorylation reaction of ATP and biotin-labeled peptide substrate, which will be ceased when the kinase activity is inhibited. According to the principle of ELISA, a monoclonal antibody can react with phosphorylated substrate specially, so biotin-labeled substrate is binded to streptavidin-coated ELISA plate, and then binded to a HRP-labeled goat anti-mouse antibody. Finally TMB is added for a color reaction and the value of A450-A630 is read by ELISA plate reader. The OD value can reflect the inhibitory activity of the VEGFR-2, PDGFR-β c-Kit tyrosine kinases treated with the test compounds at the different concentrations. So, the assay may be used to measure the inhibition ratio of the compounds for the tyrosine kinase activity. Similar assays can be designed along the same lines for any PK using techniques well known in the art. VEGF Receptor 2, PDGF Receptor-beta and c-kit kinase assay kit (include kinase, 1.25M DTT, substrate peptide, 10 mM ATP, P-[…] Mouse antibody, 4×HTScan tyrosine kinase buffer), Cell Signaling Technology CO.; HRP labeled goat anti mouse IgG, Protein Tech CO.; TMB, Pierce CO.; Streptavidin Microtitration Plate, Greiner Bio-one CO.; Infinite M200 Reader, Tecan CO. 1.2.1 Immediately transfer enzyme from -80° C. to ice. Allow enzyme to thaw on ice then at 4° C. and centrifugate transiently to the bottom of centrifuge tube, then lay back on ice quickly 1.2.2 Add 10 μl of DTT (1.25 M) to 2.5 ml of 4×HTScan tyrosine kinase buffer (240 mM HEPES pH 7.5, 20 mM MgCl2, 20 mM MnCl2, 12 μM Na3VO4). Transfer 0.6 ml of DTT/Kinase buffer to each enzyme tube to make 4× reaction Cocktail. Incubate 12.5 μl of the 4× reaction cocktail with 12.5 μl/well prediluted compound of interest for 5 minutes at room temperature, and set blank control, free-enzyme control, negative control and positive control. 1.2.3 Add 10 μl 10 mM ATP to 1.25 ml 6 μM substrate peptide. Dilute the mixture with dH20 to 2.5 ml to make 2×ATP/substrate cocktail. Add 25 μl of 2×ATP/substrate cocktail to 25 μl/well preincubated reaction cocktail/compound. Incubate reaction plate at room temperature for 30 minutes. 1.2.4 Add 50 μl/well stop Buffer (50 mM EDTA, pH 8) to stop the reaction. Transfer 25 μl of each reaction and 75 μl dH2O/well to a 96-well streptavidin coated plate and incubate at room temperature for 60 minutes. Wash three times with 200 μl/well PBS/T(1×PBS, 0.05% Tween-20). 1.2.5 Dilute primary antibody, Phospho-Tyrosine mAb (P-[…]), 1:500 in PBS/T with 1% BSA. Add 100 μl/well primary antibody. Incubate at room temperature for 60 minutes. Wash three times with 200 μl/well PBS/T(1×PBS, 0.05% Tween-20). 1.2.6 Prepare appropriate dilution of HRP labeled secondary antibody, 1:500 in PBS/T with 1% BSA. Add 100 μl/well secondary antibody solution. Incubate at room temperature for 30 minutes. […]

T1 sequence (P09619 33-1106): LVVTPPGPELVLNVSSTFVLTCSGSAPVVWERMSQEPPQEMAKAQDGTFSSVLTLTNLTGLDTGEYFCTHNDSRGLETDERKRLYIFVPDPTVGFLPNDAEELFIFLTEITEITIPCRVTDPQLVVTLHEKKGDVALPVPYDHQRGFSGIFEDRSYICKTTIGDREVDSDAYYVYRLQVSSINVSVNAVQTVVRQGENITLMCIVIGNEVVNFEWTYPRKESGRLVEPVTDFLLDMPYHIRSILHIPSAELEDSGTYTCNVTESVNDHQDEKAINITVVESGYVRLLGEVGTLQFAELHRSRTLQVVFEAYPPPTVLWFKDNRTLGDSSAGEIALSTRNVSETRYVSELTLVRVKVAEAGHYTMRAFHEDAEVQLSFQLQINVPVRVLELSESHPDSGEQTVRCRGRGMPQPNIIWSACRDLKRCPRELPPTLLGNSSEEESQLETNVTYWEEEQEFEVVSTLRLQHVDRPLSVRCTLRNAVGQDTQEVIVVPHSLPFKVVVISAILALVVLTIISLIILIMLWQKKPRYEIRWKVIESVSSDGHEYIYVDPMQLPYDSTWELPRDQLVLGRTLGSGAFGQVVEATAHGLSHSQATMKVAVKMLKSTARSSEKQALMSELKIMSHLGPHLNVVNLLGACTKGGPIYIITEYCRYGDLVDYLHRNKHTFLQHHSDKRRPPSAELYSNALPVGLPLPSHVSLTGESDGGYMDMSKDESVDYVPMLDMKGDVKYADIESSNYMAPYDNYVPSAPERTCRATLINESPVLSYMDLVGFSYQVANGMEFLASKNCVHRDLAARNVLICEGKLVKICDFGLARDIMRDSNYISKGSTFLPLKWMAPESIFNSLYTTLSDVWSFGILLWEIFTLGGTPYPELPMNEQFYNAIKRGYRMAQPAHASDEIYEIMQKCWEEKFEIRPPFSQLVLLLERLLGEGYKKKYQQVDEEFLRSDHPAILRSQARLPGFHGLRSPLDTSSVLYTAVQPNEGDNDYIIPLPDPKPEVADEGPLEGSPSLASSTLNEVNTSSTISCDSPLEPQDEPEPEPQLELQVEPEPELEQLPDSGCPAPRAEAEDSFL

Structure (SMILES)	inhibition at 0.1 µM [%]
CCN(CC)CCNC(=O)c1c(C)[nH]c2c1CCC/C2=C1/C(=O)Nc2ccc(F)cc21 [I-2, N-(2-(diethylamino)ethyl)-2-methyl-7-[1,2-dihydro-5-fluoro-2-oxo-3H-indol-(Z)-3-ylidene]-4,5,6,7-tetrahydro-1H-indole-3-carboxamide]	90
CCN(CC)CCNC(=O)c1c(C)[nH]c2c1CCC/C2=C1/C(=O)Nc2ccc(Cl)cc21 [I-3, N-(2-(diethylamino)ethyl)-2-methyl-7-[1,2-dihydro-5-chloro-2-oxo-3H-indol-(Z)-3-ylidene]-4,5,6,7-tetrahydro-1H-indole-3-carboxamide]	88
CCN(CC)CCNC(=O)c1c(C)[nH]c2c1CCC/C2=C1/C(=O)Nc2ccc(C)cc21 [I-4, N-(2-(diethylamino)ethyl)-2-methyl-7-[1,2-dihydro-5-methyl-2-oxo-3H-indol-(Z)-3-ylidene]-4,5,6,7-tetrahydro-1H-indole-3-carboxamide]	86
CCN(CC)CCNC(=O)c1c(C)[nH]c2c1CCC/C2=C1/C(=O)Nc2ccccc21 [I-5, N-(2-(diethylamino)ethyl)-2-methyl-7-[1,2-dihydro-2-oxo-3H-indol-(Z)-3-ylidene]-4,5,6,7-tetrahydro-1H-indole-3-carboxamide]	87

Now from value to molecule:

inhibition at 0.1 µM [%]	Structure (SMILES)
89	Cc1[nH]c2c(c1C(=O)NCCO)CCC/C2=C1/C(=O)Nc2ccccc21 [I-8, N-(2-hydroxyethyl)-2-methyl-7-[1,2-dihydro-2-oxo-3H-indol-(Z)-3-ylidene]-4,5,6,7-tetrahydro-1H-indole-3-carboxamide]
85	Cc1[nH]c2c(c1C(=O)NCC(O)CN1CCCC1)CCC/C2=C1/C(=O)Nc2ccccc21 (stereo not drawn) [I-70, N-(2-hydroxy-3-(pyrrolidin-1-yl)propyl)-2-methyl-7-[1,2-dihydro-2-oxo-3H-indol-(Z)-3-ylidene]-4,5,6,7-tetrahydro-1H-indole-3-carboxamide]
87	CCN(CC)CC(O)CNC(=O)c1c(C)[nH]c2c1CCC/C2=C1/C(=O)Nc2ccccc21 (stereo not drawn) [I-63, N-(3-(diethylamino)-2-hydroxypropyl)-2-methyl-7-[1,2-dihydro-2-oxo-3H-indol-(Z)-3-ylidene]-4,5,6,7-tetrahydro-1H-indole-3-carboxamide]
86	Cc1[nH]c2c(c1C(=O)NCCCN(C)C)CCC/C2=C1/C(=O)Nc2ccc(Cl)cc21 [I-7, N-(3-(dimethylamino)propyl)-2-methyl-7-[1,2-dihydro-5-chloro-2-oxo-3H-indol-(Z)-3-ylidene]-4,5,6,7-tetrahydro-1H-indole-3-carboxamide]
85	Cc1[nH]c2c(c1C(=O)NCCN(C)C)CCC/C2=C1/C(=O)Nc2ccc(F)cc21 [I-6, N-(2-(dimethylamino)ethyl)-2-methyl-7-[1,2-dihydro-5-fluoro-2-oxo-3H-indol-(Z)-3-ylidene]-4,5,6,7-tetrahydro-1H-indole-3-carboxamide]
